Like-named read-outs stand apart in the source and are kept apart here.
What was measured:
[1] = tested on: CAM (choriallantoic membrane); conditions: CAM assay; for angiogenesis: filter paper with 10 or 50 μM solution 10 μl, three days
Description: Particularly, the fertilized egg was incubated in a 37° C. 55% humid incubator. 10 days later, the egg albumin was removed by using a 2 ml hypodermic syringe in order to separate CAM and yolk sac from the shell membrane. On 10.5th day, the egg shell was removed (1 cm^2). […] Three days later, 1-2 ml of 10% fat emulsion was injected into chorioallantoic membrane, followed by observation under a microscope.

[2] = tested on: VEGF; conditions: 50 μM; cell line not clearly stated (SH-SY5Y implied)
Description: Total RNA was extracted by using RNase Spin column (Qiagen, USA). cDNA was synthesized from 1 μg of the extracted RNA using AMV reverse transcriptase (Promega, USA) and random hexamer (Gibco-BRL, USA). RT-PCR was performed using the synthesized cDNA as a template with a VEGF forward primer represented by SEQ. […] NO: 1 (5′-[sequence]-3′) and a VEGF reverse primer represented by SEQ. […] NO: 2 (5′-[sequence]-3′). RT-PCR conditions were as follows; predenaturation at 95° C. for 5 minutes, denaturation at 95° C. for 45 seconds, annealing at 56° C. for 45 seconds, polymerization at 72° C. for 60 seconds, 30 cycles from denaturation to polymerization. For the control, RT-PCR was performed again with an 18S forward primer represented by SEQ. […] NO: 3 (5′-[sequence]-3′) and an 18S reverse primer represented by SEQ. […] NO: 4 (5′-[sequence]-3′). RT-PCR conditions were as follows; predenaturation at 95° C. for 5 minutes, denaturation at 95° C. for 45 seconds, annealing at 56° C. for 45 seconds, polymerization at 72° C. for 60 seconds, 30 cycles from denaturation to polymerization.

[3] = tested on: GAL4-HIF-1α; test: HIF-1α transactivation, Gal4-driven reporter gene assay in HepG2 cells; format: cell-based, human; conditions: normoxic condition, CQ 10, 50 μM, TPEN 5 μM, 16 hours
Description: Human HepG2 hepatoma cells were cultured at the concentration of 5×10^4, which were transfected with 100 ng of Gal-4-driven reporter plasmid encoding the firefly luciferase gene under the control of the Gal4 binding site together with pGal4/HIF-1α plasmid which expresses HIF-1α linked to the DNA binding domain of the yeast Gal4 protein (amino acids 1-147). The transfected human HepG2 hepatoma cells were incubated in both normoxic and hypoxic conditions and then treated with CQ (10, 50 μM) for 16 hours in normoxic condition. 48 hours after the transfection, luciferase activities were analyzed using the reporter gene assay system (Promega, USA) and normalized by β-galactosidase activities.

[4] = target: T1, FIH-1 (Homo sapiens, UniProt Q9NWT6); conditions: F-HIF-1α peptide 4 μM, recombinant FIH-1, MALDI-TOF
T1 sequence (Q9NWT6 whole entry): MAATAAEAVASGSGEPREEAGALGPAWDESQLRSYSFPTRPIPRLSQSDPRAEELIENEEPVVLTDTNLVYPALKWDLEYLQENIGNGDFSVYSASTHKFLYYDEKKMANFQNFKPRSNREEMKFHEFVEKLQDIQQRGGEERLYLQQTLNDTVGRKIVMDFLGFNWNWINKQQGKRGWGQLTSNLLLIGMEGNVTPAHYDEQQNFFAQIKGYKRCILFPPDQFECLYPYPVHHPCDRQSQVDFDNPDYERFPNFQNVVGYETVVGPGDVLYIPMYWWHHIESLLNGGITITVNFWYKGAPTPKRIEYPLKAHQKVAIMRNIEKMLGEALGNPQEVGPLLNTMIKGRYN
Description: The present inventors examined FIH-1 activity by measuring the asparagine hydroxylation of F-HIF-1α peptide. The peptide hydroxylation was measured by mass spectrophotometry.
Particularly, F-HIF-1α (788-822 amino acids: FITC-aca-[sequence]) containing fluorescein and aca (aminocaproic acid) linker (AnyGen, KwangJu, Korea) at N-terminal was reacted with FIH-1 protein. The F-HIF-1α peptide was incubated at a final concentration of 4 μM with 2.8 μg of recombinant FIH-1 in reaction solution [20 mM Tris buffer (pH 7.5), 5 mM KCl, 1.5 mM MgCl2, 100 μM α-ketoglutarate and 400 μM ascorbic acid: final volume 50 μl]. After incubation with agitation for 2 hours at room temperature, excess salts were removed with ZipTipC18 (Millipore, USA). The F-HIF-1α peptide was eluted from the tip with a-cyano-4-hydroxycinnamic acid in acetonitrile/water (50:50 v/v) containing 0.1% TFA followed by washing with distilled water containing 0.1% TFA. The eluted peptide solution was transferred to a MALDI sample plate and MALDI-TOF measurements were performed with a Voyager analyzer (Applied Biosystems, USA).

[5] = used as an antibiotic in the mid-1900s, Japan; cited from earlier work
[6] = in vivo; cited from earlier work
[7] = tested on: EPO; conditions: normoxic condition, CQ 10, 50 μM, 16 hours; HepG2 and SH-SY5Y cells
Description: (§1) Total RNA was extracted by using RNase Spin column (Qiagen, USA). VEGF expression was investigated by Northern blot analysis. Northern blot hybridization was performed using ^32P-labeled VEGF cDNA probe and ^32P-labeled EPO cDNA probe. The Northern blotting was performed by the conventional method well known to those in the art (Sambrook et al., Molecular cloning, 1989).

[8] = tested on: VEGF; conditions: normoxic condition, CQ 10, 50 μM, 16 hours; HepG2 and SH-SY5Y cells
Description: as §1

[9] = tested on: human cancer cell lines; conditions: several human cancer cell lines; cited from earlier work
[10] = tested on: patients with Alzheimer's disease; conditions: phase II clinical trial; cited from earlier work
[11] = cited from earlier work
[12] = target: T1, FIH-1; test: In vitro FIH-1 activity (capture of radio-labeled HIF-1α by GST-CBP); format: biochemical; set-up: histidine tag; made in house; host or cells: E. coli
Description: The human FIH-1 gene (AF395830) was cloned into pET28a vector (Novagen, USA) and FIH-1 was overexpressed in E. coli as a histidine-tagged fusion protein and purified by Ni-affinity chromatography. The fusion protein was purified by gel-filtration chromatography (Hi-Load Superdex 200) and concentrated by ultrafiltration (Choi et al., Mol Pharmacol 68:1803-1809, 2005).
The resin-bound GST-CBP N-domain (amino acids 1-450) (Kamei et al., Cell 85:403-414, 1996) was then added to 1 μg of each mixture in 500 μl of binding buffer (200 mM Tris-HCl (pH 8.0), 150 mM NaCl, 20 μM ZnCl2, 0.5 mM DTT) and incubation continued for one hour at 4° C. Glutathione-uniflow resin bound protein was washed four times with 1 ml of 0.1% Nondiet P-40 containing binding buffer, and visualized by SDS-PAGE by eluting using SDS sample buffer (Dann et al., Proc Natl Acad Sci USA 99:15351-15356, 2002). The present inventors substituted the asparagine-803 residue of HIF-1α with alanine to generate HIF-1α mutant [HIF-1α-C(N803A)], followed by investigation on FIH-1 activity by the same manner as described above.
Radio-labeled HIF-1α was reacted with the purified recombinant FIH-1, in the presence or absence of CQ or TPEN. FIH-1 was expected to […] the asparagine-803 residue of HIF-1α and thus inhibit the interaction with CBP binding to HIF-1α transactivation domain (Mahon, P. C. et al., Genes Dev. 15, 2675-2686, 2001; Dannm C. E. R., et al., Proc. Natl. Acad. Sci. USA 99, 15351-15356, 2002; Lando, D., et al., Science 295, 858-861, 2002; Freedman, S. J. et al., Proc. Natl. Acad. Sci. USA 99, 5367-5372, 2002).

[13] = tested on: HRE (hypoxia-response element); test: HRE dependent gene expression in HepG2 hepatoma cells (luciferase reporter gene assay); format: cell-based, human; conditions: p(HRE)4-luc, TPEN 5, 10 μM, CQ 10, 50 μM, 16 hours
Description: Human HepG2 hepatoma cells were grown to the density of 5×10^4 and then transfected with 100 ng of HRE-driven reporter plasmid, p(HRE)4-luc together with plasmid pCHO110 which encodes β-galactosidase. The transfected human HepG2 hepatoma cells were cultured under normoxic condition and hypoxic condition and then treated with TPEN (5, 10 μM) and CQ (10, 50 μM) for 16 hours each. 48 hours after the transfection, luciferase activities were analyzed using the reporter gene assay system (Promega, USA) and normalized by β-galactosidase activities.

[14] = tested on: VEGF; test: Effects of CQ and TPEN on the expression of VEGF, a HIF-1α target gene (RT-PCR); format: cell-based, human; conditions: TPEN 5 μM
From the text: ID. […] ID. NO: 2 (5′-[…]-3′). […] ID. […] ID. NO: 4 (5′-[…]-3′).

[15] = tested on: APP2576 transgenic mice; conditions: cited from earlier work
[16] = 10 μM solution 10 μl (lower amount, 30.3-39.7 ng)
[17] = 50 μM solution 10 μl (higher amount, 151.5-198.5 ng)

What does the source list for `Oc1c(I)cc(I)c2cccnc12` [B, 5,7-diiodo-8-hydroxyquinoline]?
Angiogenesis/total (No.) [1, 16]: 5/7; Angiogenesis/total (No.) [1, 17]: 4/6; angiogenesis [1]: promote angiogenesis

What does the source list for `Oc1c(Br)cc(Br)c2cccnc12` [C, 5,7-dibromo-8-hydroxyquinoline]?
Angiogenesis/total (No.) [1, 16]: 4/6; Angiogenesis/total (No.) [1, 17]: 3/5; angiogenesis [1]: promote angiogenesis; VEGF expression, % to the expression level induced by CQ [2]: 60-70%

With `Oc1c(I)cc(Cl)c2cccnc12` [CQ, 5-chloro-7-iodo-8-quinolinol] as the molecule, how does the “transactivation activity of HIF-1α” value [3] read?
Its value is “increased transactivation activity of HIF-1α”.

What about the “asparagine-hydroxylating activity of FIH-1” value [4] of the same molecule?
The value was “inhibits the asparagine-hydroxylating activity of FIH-1”.

And the “Angiogenesis/total (No.)” value [1, 16]?
The value was 8/12.

And the “Angiogenesis/total (No.)” value [1, 17]?
Its value is 8/12.

And the angiogenesis [1]?
Its angiogenesis is “promote angiogenesis”.

What about the “adverse effect in people” value [5] of the same molecule?
Its value is “caused subacute myelo-optic neuropathy”.

And the “crossing of the blood-brain barrier” value [6]?
The value was “able to cross the blood-brain barrier”.

And the “expression of EPO” value [7]?
The value was “increased expressions of VEGF and EPO”.

And the “expression of VEGF” value [8]?
The value was “increased expressions of VEGF and EPO”.

What about the apoptotic cell death [9] of the same molecule?
Its apoptotic cell death is “causes apoptotic cell death”.

What about the cognitive decline [10] of the same molecule?
Its cognitive decline is “slowed cognitive decline”.

And the “plasma amyloid beta concentrations” value [10]?
The value was “decreased plasma amyloid beta concentrations”.

And the “pKa value, Ca2+” value ([11]; Ca^2+)?
Its value is 8.1.

What about the “pKa value, Cu2+” value ([11]; Cu^2+) of the same molecule?
Its value is 15.8.

What about the “pKa value, Mg2+” value ([11]; Mg^2+) of the same molecule?
Its value is 8.6.

And the “pKa value, Zn2+” value ([11]; Zn^2+)?
The value was 12.5.

What about the FIH-1 activity ([12]; CQ 10 μM and 50 μM, interaction between HIF-1α and CBP as readout) of the same molecule?
Its FIH-1 activity is “FIH-1 activity was reduced”.

And the “interaction between CBP and HIF-1α-C(N803A) mutant” value ([12]; HIF-1α-C(N803A) mutant, presence or absence of CQ or FIH-1)?
Its value is “did not change the interaction between CBP and HIF-1α-C (N803A)”.

And the “effect of Cu(II) on the inhibition of FIH-1 activity by CQ” value ([12]; co-treatment with Cu(II))?
Its value is “failed to reverse the inhibitory effect of CQ”.

What about the “effect of Zn(II) on the inhibition of FIH-1 activity by CQ” value ([12]; co-treatment with Zn(II)) of the same molecule?
Its value is “failed to reverse the inhibitory effect of CQ”.

And the “HIF-1α dependent hypoxia-response element (HRE) activity” value [13]?
The value was “induced HIF-1α dependent hypoxia-response element (HRE) activity”.

What about the VEGF expression ([14]; HepG2 cells, normoxic, CQ 10, 100 μM) of the same molecule?
Its VEGF expression is “differed in their effects on VEGF expression”.

What about the VEGF expression ([14]; SH-SY5Y cells, normoxic condition, CQ 10, 100 μM) of the same molecule?
Its VEGF expression is “increased VEGF expression”.

And the VEGF expression ([14]; hypoxic condition, 16 hours, CQ 100 μM, SH-SY5Y and HepG2 cells)?
Its VEGF expression is “none of the control, TPEN and CQ increased VEGF expression”.

What about the “amyloid beta plaques and serum levels of amyloid beta” value [15] of the same molecule?
Its value is “reduced both amyloid beta plaques and serum levels of amyloid beta”.

What about the systemic adverse effects [15] of the same molecule?
The systemic adverse effects was “without systemic adverse effects”.

From patent US8658672B2, “HIF-1α activating agent” (University of Seoul Foundation of Industrial and Academic …, priority 2006, dated 2014)
